In US11066421B1, “Synthetic cinchona alkaloids against cancer” (Ares Pharmaceuticals, LLC, priority 2021, dated 2021):

Legend:
U87 human GBM cells = experiment: CB.17 SCID mouse xenograft model of human glioblastoma multiforme; assay type: in vivo; settings: 5 days per week for 4 weeks
Method: Cell Lines. Human brain tumor cell line U87 (ATCC HTB-14) was obtained from American Type Culture Collection (Rockville, Md.) and maintained as a continuous cell line in DMEM supplemented with 10% fetal calf serum (FCS), 4 mm glutamine, 100 units/ml penicillin G, and […] streptomycin sulfate. All of the tissue culture reagents were obtained from Life Technologies, Inc. Inc. (Gaithersburg, Md.).
Mice. Female CB.17 SCID mice were obtained from Taconic (Germantown, N.Y.) and housed in a specific-pathogen-free room located in a secure indoor facility with controlled temperature, humidity, and noise levels. Mice were housed in micro-isolator cages and fed with autoclaved rodent chow. Water was also autoclaved and supplemented with trimethoprim/sulfomethoxazol 3 days a week. The animal protocol used in this study was approved by the local Institutional Animal Care and Use Committee (IACUC), and all of the animal care procedures conformed to the Guide for the Care and Use of Laboratory Animals (National Research Council, National Academy Press, Washington D.C. 1996).
SCID Mouse Xenograft Model of Human Glioblastoma Multiforme (GBM). The predictive value of the mouse xenograft models for clinical effectiveness of anti-cancer drugs has been confirmed for several drugs (Richmond A, Su. Y. Mouse xenograft models vs GEM models for human cancer therapeutics. Dis Model Mech. 2008; 1(2-3):78-82. doi:10.1242/dmm.000976). CB.17 SCID mice (8 wk. old, female) were inoculated subcutaneously with 1×10^6 U87 human GBM cells (1×10^6/inoculum, volume: 200 μL) in the right hind leg, as described (R. K. Narla et al., 2001, Clin Cancer Res. 7:2124-33). Mice were treated daily with intraperitoneal injections of vehicle (50 μL DMSO) or AP-1 (125 μg˜5 mg/kg/day in 50 μL DMSO) according to a 5 days on 2 days off schedule for 4 consecutive weeks. Tumor growth was determined by the measurement of visible tumors with a caliper in three dimensions three days a week and expressed as tumor volume in cubic millimeters (mm^3). Tumor volumes were calculated using the formula for the volume of a prolate spheroid, V=4/3×3.14×length/2×width/2×depth/2.

[1] = tested on: primary leukemia/lymphoma cells; experiment: Annexin V flow cytometric apoptosis assay in primary cells from patients; assay type: cell-based, human
Method: Apoptotic death was monitored using multiparameter flow cytometry, as previously reported (F. M. Uckun, et al., 2011, British Journal of Haematology, 153:741-752; F. M. Uckun et al., 2015, J Clin Invest., 125:1006-18). Controls included vehicle (PBS) treated cells (CON). Cells were analyzed for apoptosis using the standard quantitative flow cytometric apoptosis assay using the Annexin V-FITC Apoptosis Detection Kit from Sigma. The labeled cells were analyzed on a flow cytometer. The percent apoptosis was calculated using the formula: 100-100×(Percentage of non-apoptotic cells in test sample/Percentage of non-apoptotic cells in untreated control sample). The percentages for Annexin V FITC^−PI^− viable cells and Annexin V-FITC^+PI^+ advanced apoptotic cells for each sample are indicated in the respective quadrants of the depicted two-color fluorescence dot plots.
We examined the ability AP-5 to cause apoptotic death in freshly obtained primary cancer cells from Ficoll-Hypaque separated, highly enriched populations of primary leukemia/lymphoma cells isolated from bone marrow (BM, N=13) or peripheral blood (PB, N=13) specimens of 26 patients with hematological malignancies, 3 patients with rare forms of leukemia (one each with prolymphocytic leukemia [PLL], plasma cell leukemia [PCL], large granular cell leukemia [LGL]), one patient with chronic myeloid leukemia in blast crisis (CML-BC), including 8 patients with chronic lymphocytic leukemia (CLL)/well differentiated lymphocytic lymphoma (WDLL), one patient with acute myeloid leukemia (AML), 11 patients with B-lineage acute lymphoblastic leukemia (ALL) and 2 patients with T-lineage ALL (FIG. 1). Cells were treated with standard chemotherapeutic agents at various concentrations provided in RPMI-1640 medium supplemented with 10% fetal bovine serum (FBS) and incubated at 37° C. for 24 hr. Dexamethasone (DEQ.) was used. at 50 μg/ml, Adriamycin (ADR) at 10 μg/ml, vincristine (VCR), gemcitabine (GEM), fludarabine (FLU), methotrexate (MTX), etoposide (ETO), cytarabine (ARA-C) and cladribine (2-CDA) at 25 μg/ml. The cells were washed with serum-free RPMI-1640 medium and then processed for apoptosis assays. […]
Apoptotic death was monitored using multiparameter flow cytometry, as previously reported (F. M. Uckun et at, 2006, Brit Journal of Hematol. 135:500-8; F. M. Uckun et al., 2011, Brit Journal of hematol. 153:741-52; F. M. Uckun et al., 2015, J. Clin. Invest. 125:1006-18). Exposure of phosphatidylserine to the outer leaflet of the leukemic cell membrane was measured using fluorescein isothiocyanate (FITC)-conjugated annexin V, the natural ligand of phosphatidylserine (R&D Systems, Minneapolis, Minn., USA). […] The labelled cells were analyzed using a FACS Vantage flow cytometer (Becton Dickinson, Mountain view, CA, USA). […]

[2] = 24 hr in vitro exposure, primary cells from 26 patients

## C=CC1CN2CCC1CC2C(Oc1cc(OC(c2ccnc3ccccc23)C2CC3CCN2CC3C=C)nc(OC(c2ccnc3ccccc23)C2CC3CCN2CC3C=C)n1)c1ccnc2ccccc12 (centres unmarked) [AP-1, 2,4,6-Tri(9-O-cinchoninyl)pyrimidine]
U87 human GBM cells; 5 mg/kg/dose i.p. daily
  tumor progression: significantly slowed down the tumor progression
U87 human GBM cells; day 15, 5 mg/kg/day i.p.
  average tumor size: 4.1±1.1 mm^3
U87 human GBM cells; day 30, 5 mg/kg/day i.p.
  average tumor size: 37.8±16.2 mm^3
U87 human GBM cells; day 44, 5 mg/kg/day i.p.
  tumor size: 956.0±291.3 mm^3

## 2,4,6-Tri (9-O-dihydrocinchoninyl)pyrimidine [AP-5]
[1]; [2]
  % apoptosis (Mean±SE): 93.5±1.1%
  median percentage of apoptosis: 96.1%
[1]; 24 hr in vitro exposure, primary cells from 26 patients, range
  % apoptosis (range): 79.9-99.6%
[1]; 24 hr, % apoptosis compared
  potency versus standard chemotherapy drugs tested side by side: substantially more potent than any of the 9 standard chemotherapy drugs tested side by side
